Experimental data: patent US9365830B2, “Agents and methods for inhibiting human pluripotent stem cell growth” (VIACYTE, INC., priority 2010, dated 2016)

Columns and labels:
hESCs (BG02) = test: Real-time impedance assay (RT-CES) for inhibitory and cytotoxic agents on hESCs; conditions: 10 μM compound added after about 24 hours, cultured about 5 more days; compared to DMSO control
From the text: The foregoing 176 selected compounds from the complete LOPAC1280™ library were then used to screen human pluripotent stem cells, e.g., hESCs, and differentiating cultures during Stage 1 (definitive endoderm) using a real-time impedance assay (ACEA biosciences RT-CES system). The RT-CES system uses 96-well trays that contain embedded microsensors to monitor changes in electrical impedance, which is translated into a measure of cell index. Any overt alteration within a cell culture can be detected, including but not limited to cell proliferation, migration, cell spreading, apoptosis, differentiation and the like. […] An increase in the cell index indicates proliferation of the cells, for example, proliferation of the undifferentiated cells. […] See also FIG. 1. […] A “scallop” cell index is one which remains high due to a confluent culture of cells, but will go down and up (scallop) between daily feedings. Conversely, cells undergoing differentiation have distinctive patterns, such as peaks and troughs in the cell index, potentially indicative of an epithelial-to-mesenchymal transition, flattening, cell migration, apoptosis or similar differentiation and growth related changes.
Impedance Assay for Inhibitory and Cytotoxic Agents. Human pluripotent stem cells, e.g., 2×10^4 hESCs (BG02), were cultured in DC-HAIF, a heregulin-based defined media, with daily feeding in the impedance monitoring plates. After about 24 hours, and 10 μM of the selected LOPAC1280™ compound was added to each well (see arrowhead in FIGS. 3 A & B) and cultured for about an additional 5 days.

[1] = tested on: differentiating Stage 1 cultures (definitive endoderm); test: Secondary screen on differentiating Stage 1 cultures in 6-well trays; assay type: cell-based, human; conditions: compounds added to differentiating Stage 1 cultures
From the text: (§1) The impedance assay on the hESCs using the compounds in Table 4 above gave greater than twenty (20) hits. However, the ideal candidate compound of the present invention should not only be inhibitory or cytotoxic to human pluripotent stem cells, such as hESCs or hIPSCs, but should at the same time have no effect on cell viability of differentiated or differentiating cell populations including Stage 1, 2, 3, 4 and 5 type cells cultures (definitive endoderm, foregut endoderm, posterior foregut, pancreatic endoderm and endocrine cells, respectively). […] Approximately 3×10^4 hES cells were plated per well and grown for 24 hrs in DC-HAIF defined medium (i.e. StemPro® hESC SFM medium (Life Technologies, Carlsbad, Calif.). Stage 1 or definitive endoderm differentiation was then induced by changing the medium and culturing in RPMI, 100 ng/mL Activin A, and 10 ng/mL of FGF2. […] of GSK-3 beta Inhibitor 15 (Calbiochem #361558) as added to the culture for the first 24 hours of differentiation only. 10 μM of each of the candidate compounds were added about 48 hours or 2 days after differentiation was induced (see FIGS. 3 C & D, large arrowhead), and the cells were cultured for an additional 2 days.
Secondary Screen with Selected Compounds. A secondary screen using 9 of the 10 candidate compounds in Table 5 was performed by adding the compounds to differentiating Stage 1 cultures (definitive endoderm) as described above. For the secondary screen, larger standard 6-well trays were used instead of the RT-CEAS 96-well culture plates used in primary screens employing impedance assays. Only 9 of the 10 compounds in Table 5 were tested because the 10th was not available in sufficient quantity at the time the assays were performed. In the larger, 6-well trays, 5 of the 9 compounds listed in Table 5 had no effect on viability of differentiating cells or differentiated definitive endoderm. […] This assay also confirmed that the viability of differentiating cells and differentiated definitive endoderm cells was apparently consistent regardless of the numbers of cells tested, or the size, volume, or source of the culture vessel.

[2] = tested on: adherent Stage 1 cell cultures of BG02; test: Q-PCR marker gene expression, adherent Stage 1 cultures of BG02; assay type: cell-based, human
From the text: FIGS. 4A-4G are bar graphs showing the relative gene expression levels of OCT4 (FIG. 4A), NANOG (FIG. 4B), FOXA2 (FIG. 4C), SOX17 (FIG. 4D), SOX7 (FIG. 4E), PAX6 (FIG. 4F) and ZIC1 (FIG. 4G) BG02 with treatment of candidate selective cytotoxic agents from the LOPAC1280™ sublibrary (Table 4) to adherent Stage 1 cell cultures of BG02. Expression levels were normalized using the geometric mean of three housekeeping genes, GUSB, CYCG and TBP. The graphs depict fold regulation compared to the hESC sample. The large arrow heads indicate time of the drug treatment. D=DMSO (control); C=Chelerythrine Chloride; A=AG490; B=BTO-1; De=Dephostatin; S=SU6656.
Screen for Effects on Stages 1-5 Differentiation. To further determine whether these 5 candidate compounds added at Stage 1 affected other differentiated cell types (e.g. Stages 2-5: foregut endoderm, posterior foregut endoderm, pancreatic endoderm and endocrine precursor cells, respectively), hES were differentiated in the presence or absence of compounds, and RNA samples were taken at various stages for gene expression analysis by Q-PCR.
Gene expression levels were plotted relative to a DMSO treated control at the end of Stage 1 (FIG. 4), and relative to undifferentiated hESC aggregates (FIGS. 5 and 6). See “Control” in FIGS. 4, 5 & 6. […] Chelerythrine chloride, Dephostatin, SU 6656 and Tyrphostin AG 490 compounds each caused an increase in SOX17 gene expression as compared to the DMSO control, consistent with the gene expression profile for Stage 1 definitive endoderm cell cultures (FIG. 4D). However, Tyrphostin AG 490 (AG) and SU 6656 (SU) each caused a decrease in FOXA2 (HNF3β) expression as compared to the DMSO control, indicating adverse effects of these two compounds on definitive endoderm (FIG. 4C). Yet none of the compounds appeared to substantially impact expression of non-definitive endoderm markers including SOX7, PAX6 or ZIC1 (FIGS. 4 E, 4F & 4G), and were not, therefore, excluded on the basis of inducing differentiation to other cell types. […] This compound neither decreased OCT4 or NANOG expression, nor increased FOXA2 (HNF3β) or SOX17 expression, as would have been expected of a pluripotent stem cell-selective inhibitor/cytotoxic agent.

[3] = tested on: undifferentiated hESCs growing in adherent culture; test: EC50 of cytotoxic effect on undifferentiated hESCs in adherent culture, real-time impedance assay; assay type: cell-based, human; conditions: Homo sapiens, read-out: EC50 concentrations for hES cells (cytotoxic effect)
Procedure: In summary, the final three (3) candidates identified from both the primary and secondary screens (EXAMPLE 1) and the full screen of the LOPAC1280™ collection (EXAMPLE 2) were Chelerythrine Chloride, Caffeic acid and Ivermectin. FIG. 11 lists the known or inferred mode(s) of action for these three compounds, as well as their structures. EC50 values for the respective cytotoxic effects on undifferentiated hESCs growing in adherent culture were determined using real-time impedance assays.
Depletion of OCT4-positive cells during Stage 1 differentiation was examined using the plating assay described above. Stage 1 differentiations of hES cells were treated from day 1 to 2 with the candidate compounds as described in Example 2 (chelerythrine chloride, caffeic acid and Ivermectin), at their EC50 concentrations for hES cells. Plated untreated and DMSO-treated aggregates were indistinguishable, and both contained discrete clusters of OCT4-positive cells. See FIG. 13A top and bottom panels for a DMSO treated example. The intensity of OCT4-positive staining in differentiating aggregate cell cultures treated with DMSO (control) was equivalent to undifferentiated hES cells.

NPCs = test: Secondary screen, lowest effective dose on NPCs; assay type: cell-based, human; conditions: lowest concentration that elicited cytotoxicity; range 0.1 to 50 μM; read-out: ED NPC (lowest effective dose)
Procedure: In addition, the complete LOPAC1280™ collection was also screened for effects on neural progenitor cells (NPCs) that were derived from the hESCs. Neural progenitors were plated in serum-free MedII conditioned medium at 6×10^4 cells/well and fed daily. Two days after plating, 10 μM of each compound was added and the cells were cultured for an additional 2 days. […] Reduced crystal violet staining was indicative of lower proportions of NPCs. See circled wells in FIG. 7B. The left and right columns of the LOPAC1280™ plates from which the compounds were dispensed were empty and served as untreated controls. […] See Table 6 below listing the name and class of activity of each candidate compound identified in this screen (except chelerythrine chloride, which is listed in Table 5). ChCl was not included in the subsequent round of screening. Therefore only 40 compounds were tested further.
(§2) Using a range of different concentrations from 0.1 to 50 μM, the forty compounds in Table 6 were re-screened (secondary screen) using hESCS and NPCs. The effective dose (ED) was defined as the lowest concentration of a compound that elicited cytotoxicity during the secondary screen. […] The darker wells were indicative of the increased numbers or percentages of proliferating or growing pluripotent stem cells in the wells. In addition, these 40 compounds were screened on differentiating definitive endoderm (DE) cell cultures in 96-well plate impedance assays (described above) to determine which of these compounds were not cytotoxic to definitive endoderm cells at the lowest effective dose on either hESC or NPC. […] See “ACEA DE” column in Table 6.

hESCs = test: Secondary screen, lowest effective dose on hESCs; assay type: cell-based, human; conditions: lowest concentration that elicited cytotoxicity; range 0.1 to 50 μM; read-out: ED hESC (lowest effective dose)
Procedure: To expand the number of potential candidate hESC cytotoxic and inhibitory compounds, the complete LOPAC1280™ collection (containing 1,280 compounds) was screened. In the primary screen, cytotoxicity was tested on undifferentiated hESCs (about 3×10^4 BG01 cells) in 16 standard 96-well trays, in DC-HAIF defined medium on growth factor-reduced MATRIGEL™ diluted 1:200, which were fed daily (FIG. 7A). 10 μM of each compound was added to the hESCs one day after plating, and the cells were cultured for an additional 2 days. Plates were then fixed and stained for alkaline phosphatase (AP) to identify relative decreases in proliferation or growth of hESCs (as reduced AP staining), indicative of lower proportions of hESCs. See the circled wells in FIG. 7A.
as §2

[4] = tested on: differentiating definitive endoderm (DE) cell cultures; test: 96-well plate impedance assay (ACEA) on differentiating definitive endoderm at lowest effective dose; assay type: cell-based, human; design: key: Viable: Compounds that did not appear to be cytotoxic toward differentiating DE cultures were marked as “viable”, meaning that the compound did not affect the survival, growth, proliferation or differentiation of the differentiated cells; conditions: at the lowest effective dose on either hESC or NPC
From the text: as §1, §2

N#Cc1cc([N+](=O)[O-])c2sc(C(N)=O)[n+]([O-])c2c1 [BTO-1]
cell index (impedance); inhibitory or cytotoxic effect on the hESCs (hESCs (BG02)): significant decrease | Viability of Definitive Endoderm [1]: Viable | FOXA2 (HNF3β) expression ([2]; end of Stage 1, compared to DMSO control (FIG. 4C)): did not appear to have any effect | SOX17 gene expression ([2]; end of Stage 1, compared to DMSO control (FIG. 4D)): did not appear to have any effect | OCT4 and NANOG gene expression ([2]; end of Stage 1, compared to DMSO control (FIGS. 4A, 4B)): did not appear to have any effect

COc1ccc2c(c[n+](C)c3c4cc5c(cc4ccc23)OCO5)c1OC [Chelerythrine chloride]
cell index (impedance); inhibitory or cytotoxic effect on the hESCs (hESCs (BG02)): significant decrease | EC50 [3]: 1.4 µM

CC(Cc1ccc(O)c(O)c1)C(C)Cc1ccc(O)c(O)c1 (stereo not drawn) [Nordihydroguaiaretic acid from Larrea, Nordihydroguaiaretic acid from Larrea divaricata (creosote bush)]
minimal effective concentration (NPCs): 5 µM | cell index (impedance); inhibitory or cytotoxic effect on the hESCs (hESCs (BG02)): significant decrease | minimal effective concentration (hESCs): 5 µM | ACEA DE [4]: Viable

N#C/C(=C\c1ccc(O)c(O)c1)C(=O)Nc1ccccc1 [Tyrphostin AG 494]
cell index (impedance); inhibitory or cytotoxic effect on the hESCs (hESCs (BG02)): significant decrease
